pIC50: −log10 of the molar value. Calls of active or inactive are those of the source. No cut-off for these calls is given here.
target: Receptor tyrosine-protein kinase erbB-2 (Homo sapiens) (UniProt P04626); test: Inhibition of Her2 sheddase activity in BT474 cell line; format: functional, cell-based; conditions: BT-474
Sequence (P04626 whole entry): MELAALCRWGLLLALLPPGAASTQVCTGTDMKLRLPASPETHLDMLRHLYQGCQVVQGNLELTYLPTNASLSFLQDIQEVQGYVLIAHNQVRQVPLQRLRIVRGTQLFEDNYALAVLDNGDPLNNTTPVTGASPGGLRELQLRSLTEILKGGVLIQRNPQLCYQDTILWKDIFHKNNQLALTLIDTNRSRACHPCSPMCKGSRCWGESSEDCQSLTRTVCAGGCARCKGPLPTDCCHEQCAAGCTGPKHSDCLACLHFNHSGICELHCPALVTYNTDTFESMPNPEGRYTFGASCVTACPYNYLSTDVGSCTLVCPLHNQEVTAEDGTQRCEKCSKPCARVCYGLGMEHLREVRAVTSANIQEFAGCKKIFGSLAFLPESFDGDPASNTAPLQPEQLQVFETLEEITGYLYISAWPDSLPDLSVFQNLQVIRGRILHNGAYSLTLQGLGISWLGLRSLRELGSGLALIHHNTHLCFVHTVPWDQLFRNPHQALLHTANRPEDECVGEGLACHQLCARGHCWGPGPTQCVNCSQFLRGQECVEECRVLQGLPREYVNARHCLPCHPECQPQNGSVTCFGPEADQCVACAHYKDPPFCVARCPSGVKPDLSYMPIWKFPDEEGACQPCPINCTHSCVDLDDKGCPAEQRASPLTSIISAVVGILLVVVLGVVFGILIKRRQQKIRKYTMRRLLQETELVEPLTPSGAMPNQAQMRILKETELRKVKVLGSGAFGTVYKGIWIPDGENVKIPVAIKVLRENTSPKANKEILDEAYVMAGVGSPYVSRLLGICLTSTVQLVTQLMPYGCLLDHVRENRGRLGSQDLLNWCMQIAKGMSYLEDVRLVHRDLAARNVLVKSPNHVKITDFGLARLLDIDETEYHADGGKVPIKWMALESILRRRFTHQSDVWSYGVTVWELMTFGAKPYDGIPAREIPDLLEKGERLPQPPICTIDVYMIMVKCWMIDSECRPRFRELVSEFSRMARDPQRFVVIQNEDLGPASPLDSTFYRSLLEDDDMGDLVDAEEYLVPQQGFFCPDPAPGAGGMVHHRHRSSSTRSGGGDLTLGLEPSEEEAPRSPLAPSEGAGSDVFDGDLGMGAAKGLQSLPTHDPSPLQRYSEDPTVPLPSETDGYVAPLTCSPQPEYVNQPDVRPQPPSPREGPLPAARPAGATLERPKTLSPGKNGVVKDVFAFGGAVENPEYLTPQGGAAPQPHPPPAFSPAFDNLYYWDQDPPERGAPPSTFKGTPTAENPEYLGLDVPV

SMILES	Activity
CCC(C)NC(=O)[C@@H]1[C@@H](C(=O)NO)CC2(CC2)CN1C (stereo partly specified)	inactive
Cc1ccccc1N1CCN(C(=O)[C@H]2NCC3(CC3)C[C@@H]2C(=O)NO)CC1	inactive

target: T1, Disintegrin and metalloproteinase domain-containing protein 10 (Homo sapiens, UniProt O14672); test: Inhibition of ADAM10; conditions: not given
T1 sequence (O14672 whole entry): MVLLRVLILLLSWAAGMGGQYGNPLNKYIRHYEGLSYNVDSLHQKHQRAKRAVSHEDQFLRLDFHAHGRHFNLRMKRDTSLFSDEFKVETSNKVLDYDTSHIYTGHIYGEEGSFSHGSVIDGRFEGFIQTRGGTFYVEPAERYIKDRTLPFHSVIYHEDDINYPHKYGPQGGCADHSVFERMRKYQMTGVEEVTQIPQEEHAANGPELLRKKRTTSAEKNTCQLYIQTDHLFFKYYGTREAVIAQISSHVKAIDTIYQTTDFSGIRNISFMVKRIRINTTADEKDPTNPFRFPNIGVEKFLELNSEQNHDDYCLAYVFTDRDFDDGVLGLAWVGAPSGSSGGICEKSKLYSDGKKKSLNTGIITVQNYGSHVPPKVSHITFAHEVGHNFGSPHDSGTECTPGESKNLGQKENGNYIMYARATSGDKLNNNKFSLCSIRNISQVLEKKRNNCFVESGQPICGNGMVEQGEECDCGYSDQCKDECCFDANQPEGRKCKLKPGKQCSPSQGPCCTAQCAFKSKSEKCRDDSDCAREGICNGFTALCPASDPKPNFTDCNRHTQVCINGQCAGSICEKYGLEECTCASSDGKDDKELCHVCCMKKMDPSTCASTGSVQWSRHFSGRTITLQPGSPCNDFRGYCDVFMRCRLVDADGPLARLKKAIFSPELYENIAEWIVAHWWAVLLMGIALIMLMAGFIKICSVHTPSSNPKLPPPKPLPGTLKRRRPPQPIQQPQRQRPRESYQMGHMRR

SMILES	pIC50
Cc1cc([N+](=O)[O-])ccc1C1=CCN(C(=O)[C@H]2NCC3(CC3)C[C@@H]2C(=O)NO)CC1	6.89
O=C(NO)[C@H]1CC2(CC2)CN[C@@H]1C(=O)N1CCN2c3ccccc3CC2C1 (stereo partly specified)	6.48
O=C(NO)[C@H]1CC2(CC2)CN[C@@H]1C(=O)N1CCC(c2ccccc2)CC1	6.49
CC1=C(c2ccccc2)CCN(C(=O)[C@H]2NCC3(CC3)C[C@@H]2C(=O)NO)C1	6.14
O=C(NO)[C@H]1CC2(CC2)CN[C@@H]1C(=O)N1CC=C(c2ccccc2)C1	7.64
Cc1ccccc1N1CCN(C(=O)[C@H]2NCC3(CC3)C[C@@H]2C(=O)NO)CC1	< 5.30

target: T2, Interstitial collagenase (Homo sapiens, UniProt P03956); test: Inhibition of MMP1; conditions: not given
T2 sequence (P03956 whole entry): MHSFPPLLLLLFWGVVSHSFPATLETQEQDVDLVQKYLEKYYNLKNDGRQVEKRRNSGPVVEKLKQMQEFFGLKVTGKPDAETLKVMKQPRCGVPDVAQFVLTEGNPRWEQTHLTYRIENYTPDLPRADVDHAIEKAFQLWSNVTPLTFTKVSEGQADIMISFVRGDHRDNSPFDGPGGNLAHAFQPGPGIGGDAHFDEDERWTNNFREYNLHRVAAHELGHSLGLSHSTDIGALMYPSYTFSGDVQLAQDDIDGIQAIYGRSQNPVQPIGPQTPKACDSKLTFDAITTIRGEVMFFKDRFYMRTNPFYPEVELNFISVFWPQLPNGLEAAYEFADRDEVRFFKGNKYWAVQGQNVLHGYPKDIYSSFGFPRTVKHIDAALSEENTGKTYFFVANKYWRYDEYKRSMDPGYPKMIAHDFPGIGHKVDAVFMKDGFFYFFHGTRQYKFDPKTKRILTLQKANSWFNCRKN

SMILES	pIC50
Cc1cc([N+](=O)[O-])ccc1C1=CCN(C(=O)[C@H]2NCC3(CC3)C[C@@H]2C(=O)NO)CC1	< 5.30
CCC(C)NC(=O)[C@@H]1[C@@H](C(=O)NO)CC2(CC2)CN1C (stereo partly specified)	< 5.30
O=C(NO)[C@H]1CC2(CC2)CN[C@@H]1C(=O)N1CCN2c3ccccc3CC2C1 (stereo partly specified)	< 5.30
O=C(NO)[C@H]1CC2(CC2)CN[C@@H]1C(=O)N1CCC(c2ccccc2)CC1	< 5.30
CC1=C(c2ccccc2)CCN(C(=O)[C@H]2NCC3(CC3)C[C@@H]2C(=O)NO)C1	< 5.30
O=C(NO)[C@H]1CC2(CC2)CN[C@@H]1C(=O)N1CC=C(c2ccccc2)C1	5.60
Cc1ccccc1N1CCN(C(=O)[C@H]2NCC3(CC3)C[C@@H]2C(=O)NO)CC1	< 5.30

target: 72 kDa type IV collagenase (Homo sapiens, UniProt P08253); test: Inhibition of MMP2; conditions: not given
Sequence (P08253 whole entry): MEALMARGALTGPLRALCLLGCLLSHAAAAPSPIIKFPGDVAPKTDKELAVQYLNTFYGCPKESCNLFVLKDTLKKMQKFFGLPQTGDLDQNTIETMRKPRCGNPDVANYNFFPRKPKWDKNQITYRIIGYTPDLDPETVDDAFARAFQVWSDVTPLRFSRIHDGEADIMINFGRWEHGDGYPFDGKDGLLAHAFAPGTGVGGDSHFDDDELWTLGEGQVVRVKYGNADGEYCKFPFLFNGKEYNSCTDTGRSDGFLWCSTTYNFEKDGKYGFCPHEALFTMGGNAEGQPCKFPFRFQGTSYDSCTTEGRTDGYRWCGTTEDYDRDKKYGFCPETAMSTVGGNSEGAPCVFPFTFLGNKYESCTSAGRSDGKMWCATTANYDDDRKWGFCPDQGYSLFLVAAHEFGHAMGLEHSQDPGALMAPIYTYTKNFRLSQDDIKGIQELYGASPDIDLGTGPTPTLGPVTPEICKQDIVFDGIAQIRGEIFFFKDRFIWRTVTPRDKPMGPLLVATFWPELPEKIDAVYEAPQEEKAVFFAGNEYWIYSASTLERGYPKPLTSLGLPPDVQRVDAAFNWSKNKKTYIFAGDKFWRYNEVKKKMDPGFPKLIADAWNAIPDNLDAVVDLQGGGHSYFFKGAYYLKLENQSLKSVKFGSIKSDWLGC

SMILES	pIC50
Cc1cc([N+](=O)[O-])ccc1C1=CCN(C(=O)[C@H]2NCC3(CC3)C[C@@H]2C(=O)NO)CC1	< 5.30
CCC(C)NC(=O)[C@@H]1[C@@H](C(=O)NO)CC2(CC2)CN1C (stereo partly specified)	< 6.00
O=C(NO)[C@H]1CC2(CC2)CN[C@@H]1C(=O)N1CCN2c3ccccc3CC2C1 (stereo partly specified)	6.46
O=C(NO)[C@H]1CC2(CC2)CN[C@@H]1C(=O)N1CCC(c2ccccc2)CC1	6.35
CC1=C(c2ccccc2)CCN(C(=O)[C@H]2NCC3(CC3)C[C@@H]2C(=O)NO)C1	< 5.30
O=C(NO)[C@H]1CC2(CC2)CN[C@@H]1C(=O)N1CC=C(c2ccccc2)C1	7.89
Cc1ccccc1N1CCN(C(=O)[C@H]2NCC3(CC3)C[C@@H]2C(=O)NO)CC1	< 5.30

target: Stromelysin-1 (Homo sapiens, UniProt P08254); test: Inhibition of MMP3; conditions: not given
Sequence (P08254 whole entry): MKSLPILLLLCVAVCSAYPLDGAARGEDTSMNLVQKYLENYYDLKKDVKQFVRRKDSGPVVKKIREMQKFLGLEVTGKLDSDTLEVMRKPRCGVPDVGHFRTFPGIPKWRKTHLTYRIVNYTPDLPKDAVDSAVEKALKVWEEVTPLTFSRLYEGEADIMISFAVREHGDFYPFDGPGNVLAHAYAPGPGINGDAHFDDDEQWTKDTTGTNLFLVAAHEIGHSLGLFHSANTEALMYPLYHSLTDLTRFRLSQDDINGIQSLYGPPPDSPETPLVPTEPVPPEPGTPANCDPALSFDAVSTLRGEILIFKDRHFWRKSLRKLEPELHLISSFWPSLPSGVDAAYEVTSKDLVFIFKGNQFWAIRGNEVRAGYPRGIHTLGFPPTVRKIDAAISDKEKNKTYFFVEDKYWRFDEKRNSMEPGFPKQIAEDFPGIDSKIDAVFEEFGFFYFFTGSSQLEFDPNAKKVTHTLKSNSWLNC

SMILES	pIC50
Cc1cc([N+](=O)[O-])ccc1C1=CCN(C(=O)[C@H]2NCC3(CC3)C[C@@H]2C(=O)NO)CC1	< 5.30
CCC(C)NC(=O)[C@@H]1[C@@H](C(=O)NO)CC2(CC2)CN1C (stereo partly specified)	< 6.00
O=C(NO)[C@H]1CC2(CC2)CN[C@@H]1C(=O)N1CCN2c3ccccc3CC2C1 (stereo partly specified)	< 5.30
O=C(NO)[C@H]1CC2(CC2)CN[C@@H]1C(=O)N1CCC(c2ccccc2)CC1	< 5.30
CC1=C(c2ccccc2)CCN(C(=O)[C@H]2NCC3(CC3)C[C@@H]2C(=O)NO)C1	< 5.30
O=C(NO)[C@H]1CC2(CC2)CN[C@@H]1C(=O)N1CC=C(c2ccccc2)C1	6.35
Cc1ccccc1N1CCN(C(=O)[C@H]2NCC3(CC3)C[C@@H]2C(=O)NO)CC1	< 5.30

target: Matrix metalloproteinase-9 (Homo sapiens, UniProt P14780); test: Inhibition of MMP9; conditions: not given
Sequence (P14780 whole entry): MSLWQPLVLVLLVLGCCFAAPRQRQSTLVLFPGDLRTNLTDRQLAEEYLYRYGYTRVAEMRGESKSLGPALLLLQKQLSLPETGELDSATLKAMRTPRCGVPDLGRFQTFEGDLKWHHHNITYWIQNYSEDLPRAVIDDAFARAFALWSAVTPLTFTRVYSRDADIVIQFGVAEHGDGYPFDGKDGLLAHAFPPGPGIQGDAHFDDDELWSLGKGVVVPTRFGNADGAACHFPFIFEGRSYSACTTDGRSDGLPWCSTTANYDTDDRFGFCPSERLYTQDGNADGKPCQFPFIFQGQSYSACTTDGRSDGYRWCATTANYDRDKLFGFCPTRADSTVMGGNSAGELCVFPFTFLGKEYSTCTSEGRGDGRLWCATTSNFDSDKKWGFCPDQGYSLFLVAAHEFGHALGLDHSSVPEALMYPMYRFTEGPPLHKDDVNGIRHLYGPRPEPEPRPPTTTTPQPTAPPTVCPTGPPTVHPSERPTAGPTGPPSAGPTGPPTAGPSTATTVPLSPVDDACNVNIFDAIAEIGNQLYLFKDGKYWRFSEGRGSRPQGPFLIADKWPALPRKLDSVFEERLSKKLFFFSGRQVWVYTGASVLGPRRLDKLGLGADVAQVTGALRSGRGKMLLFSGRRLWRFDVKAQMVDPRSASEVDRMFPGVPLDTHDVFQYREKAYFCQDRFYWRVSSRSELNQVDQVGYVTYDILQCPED

SMILES	pIC50
Cc1cc([N+](=O)[O-])ccc1C1=CCN(C(=O)[C@H]2NCC3(CC3)C[C@@H]2C(=O)NO)CC1	< 5.30
CCC(C)NC(=O)[C@@H]1[C@@H](C(=O)NO)CC2(CC2)CN1C (stereo partly specified)	< 5.30
O=C(NO)[C@H]1CC2(CC2)CN[C@@H]1C(=O)N1CCN2c3ccccc3CC2C1 (stereo partly specified)	< 5.30
O=C(NO)[C@H]1CC2(CC2)CN[C@@H]1C(=O)N1CCC(c2ccccc2)CC1	< 5.30
CC1=C(c2ccccc2)CCN(C(=O)[C@H]2NCC3(CC3)C[C@@H]2C(=O)NO)C1	< 5.30
O=C(NO)[C@H]1CC2(CC2)CN[C@@H]1C(=O)N1CC=C(c2ccccc2)C1	7.11
Cc1ccccc1N1CCN(C(=O)[C@H]2NCC3(CC3)C[C@@H]2C(=O)NO)CC1	< 5.30

Source: ChEMBL document CHEMBL1141384, “Discovery of a potent, selective, and orally active human epidermal growth factor receptor-2 sheddase inhibitor for the treatment of cancer” (J Med Chem, 2007)
